Consider one compound from publication PMC7672424 (Nucleic Acids Research, 2020).

For one test, the system named is Duplex. As to the kind of experiment: CD melting, DNA stabilization. The conditions noted are these: 5 µM DNA (19AT), 20 µM BMPQ-1, 10 mM Tris-HCl, 50 mM KCl, pH 7.4. Type of test: binding. The method, then: Figure S2. Normalized CD thermal melting curves of DNAs in the absence or presence of BMPQ-1 under K+ conditions. (A) TTA69, (B) TTA45, (C) TTA, (D) c-KIT1, (E) TBA, (F) duplex DNA 19AT. The DNA concentration was 5 µM, and BMPQ-1 was 10 µM or 20 µM. All measurements were carried out in the buffer with 10 mM Tris-HCl (pH 7.4), 50 mM KCl. […]

The test system of test [1] is FAM-TTA45-TAMRA (DNA, G4) GGGTTAGGGTTAGGGTTAGGGTTAGGGTTAGGGTTAGGGTTAGGG
The test can be described thus: FRET melting. The conditions noted are these: 100 mM K+ (KCl) plus potassium phosphate; 10 mM K2HPO4/KH2PO4 pH 7.0; 0.5 µM DNA, 20 µM compound.

Test [2] relates to VEGF (DNA, G4) GGGAGGGTTGGGGTGGG
As to the kind of experiment: ligand fluorescence enhancement. The conditions noted are these: 100 mM K+ (KCl) plus potassium phosphate; 10 mM K2HPO4/KH2PO4 pH 7.0; 3 µM compound, 4 µM DNA; enhancement below 3-fold.

Another test relates to TTA69. The test can be described thus: CD melting, DNA stabilization. Type of test: binding, human. To be noted: 5 µM DNA, 20 µM BMPQ-1, 10 mM Tris-HCl, 50 mM KCl, pH 7.4.
The subject of test [3] is TTA45 (DNA, G4) GGGTTAGGGTTAGGGTTAGGGTTAGGGTTAGGGTTAGGGTTAGGG
As to the kind of experiment: ligand fluorescence enhancement. The conditions noted are these: 100 mM K+ (KCl) plus potassium phosphate; 10 mM K2HPO4/KH2PO4 pH 7.0; 3 µM compound, 2 µM DNA; 10-fold increase at 521 nm.

The next test relates to TTA. The conditions noted are these: CD melting; 5 µM DNA, 20 µM compound; 10 mM Tris-HCl, 50 mM KCl, pH 7.4.
Test [4] deals with c-KIT2 (DNA, G4) GGGCGGGCGCGAGGGAGGGG
The test can be described thus: ligand fluorescence enhancement. To be noted: 100 mM K+ (KCl) plus potassium phosphate; 10 mM K2HPO4/KH2PO4 pH 7.0; 3 µM compound, 4 µM DNA; enhancement below 3-fold.

Test [5] relates to dimeric G-quadruplexes (TTA45). The test can be described thus: Fluorescence response of BMPQ-1 to DNA. The class given is binding, human. The conditions noted are these: 3 μM BMPQ-1, 2 μM TTA45, λex = 395 nm. As to the method: Figure 1. (A) Structure of BMPQ-1. (B) Fluorescence spectra of BMPQ-1 at λex = 395 nm in the absence or presence of dimeric G-quadruplexes (TTA45), monomeric G-quadruplexes (c-KIT1, c-KIT2, c-MYCPu22, TTA, VEGF, TBA), trinucleotide DNA (CGG12), duplex DNA (19AT) and single-stranded DNA (dT30). The concentration of BMPQ-1 was 3 μM. The concentration of TTA45 was 2 μM and DNAs with other structures were 4 μM. (C) Fluorescence spectra of 6 μM BMPQ-1 at λex = 395 nm in the absence or presence of 2 μM telomeric G-quadruplexes. Oligonucleotide samples were prepared in solution with 10 mM K2HPO4/KH2PO4, pH 7.0, 100 mM KCl. (D) Effect of BMPQ-1 on the CD spectra of 10 μM TTA45 in 10 mM Tris-HCl buffer (pH 7.4) containing 100 mM KCl.
G-quadruplex forming oligonucleotides were annealed in the buffer (10 mM K2HPO4/KH2PO4 pH 7.0, 100 mM KCl) by heating to 95°C for 5 min, followed by gradual cooling to room temperature. Fluorescence spectra were detected by RF-5301PC spectrofluorophotometer (Shimadzu, Japan) at room temperature. The spectra were recorded with 5 nm excitation and emission slit widths. […] For the fluorescence measurements between BMPQ-1 and different DNA sequences, the final concentrations of multimeric G-quadruplex forming oligonucleotides were 2 μM and other DNA oligonucleotides were 4 μM.

In test [6] the test system is TTA51/T3 (DNA, G4) GGGTTAGGGTTAGGGTTAGGGTTATTATTAGGGTTAGGGTTAGGGTTAGGG
The test can be described thus: fluorescence titration. To be noted: 100 mM K+ (KCl) plus potassium phosphate; 10 mM K2HPO4/KH2PO4 pH 7.0; 3 µM compound, DNA 0-10 µM; weaker than TTA45.

The next test relates to A549 cells. The test can be described thus: Cell cycle analysis by flow cytometry (PI). To be noted: A549, 3 μM, 24 h; control 10.4%. Type of test: cell-based, human. As to the method:
A549 cells treated with BMPQ-1 were harvested and washed in PBS and fixed with 70% ethanol at 4°C overnight. Then, the cells were centrifuged and re-suspended in a staining solution (50 μg/mL propidium iodide (PI), 75 KU/ml RNase A in PBS) for 30 min at room temperature in the dark. The cells were analyzed by flow cytometer (BD FacsAria, USA). For each analysis, 2.0 × 10^4 events were collected.
Figure S9. BMPQ-1 induced A549 cell cycle arrest. (A) The cell cycle analysis of A549 cells after 24 h treatment with BMPQ-1. The cells were collected and stained with propidium iodide (PI). (B) Percentage of A549 cells in different phases of the cell cycle. […]
different from the control. […]

The subject of test [7] is c-KIT1 (DNA, G4) AGGGAGGGCGCTGGGAGGAGGG
As to the kind of experiment: CD melting. To be noted: 50 mM K+; 10 mM Tris-HCl pH 7.4; 5 µM DNA, 20 µM compound.

For test [8], the system named is TTA43 (DNA, G4) GGGTTAGGGTTAGGGTTAGGGTGGGTTAGGGTTAGGGTTAGGG
The test can be described thus: fluorescence titration. The conditions noted are these: 100 mM K+ (KCl) plus potassium phosphate; 10 mM K2HPO4/KH2PO4 pH 7.0; 3 µM compound, DNA 0-10 µM; weaker than TTA45.

For `Cc1ccc(Cn2cc3c(-c4ccc5c(c4)OCO5)nnc-3c3cc4c(cc32)OCO4)cc1` [BMPQ-1], the “ΔTm (°C) Duplex” value with Duplex turned out to be 1.8 °C. Also, the ΔTm (usually the change in melting temperature against a reference sample) stood at 16.09 ± 1.79 °C in test [1] and 6.6 °C in test [7]. Further, the binding result was “weak” in [2]; “yes” in test [3]; “weak” in [4]; “yes” in test [6]; “yes” in test [8]. Besides, the “ΔTm (°C) TTA69” value in the test on TTA69 is 13.8 °C. Further, the “ΔTm (°C) TTA” value in the test on TTA worked out at 8.4 °C. In addition, the “fluorescence increase at 521 nm” value in test [5] is given as 10 fold. For the same compound, in the test with A549 cells, the “percentage of G2/M phase” value was determined as 17.8%.
